assay: method code SF-GLC, from DOI: 10.1016/s0022-3565(25)29827-5, PMID: 4823294; details: pH 7.4

**Q.** For `CCC(C)(C)COC(N)=O`, which logD is on record?
**A.** 1.45

**Q.** Which logD does the source give for `CCCCCCCOC(N)=O` here?
**A.** 2.36

**Q.** Which logD does the source give for `CC(C)(C)OC(N)=O` here?
**A.** 0.48

**Q.** Which logD does the source give for `CCCCCOC(N)=O` here?
**A.** 1.35

**Q.** For `NC(=O)OCc1ccccc1`, which logD is on record?
**A.** 1.23

**Q.** Which logD does the source give for `CCCCCCCCOC(N)=O` here?
**A.** 2.84

**Q.** With `CCCCOC(N)=O` as the molecule, how does the logD read?
**A.** 0.85

**Q.** Which logD does the source give for `CC(C)(C)COC(N)=O` here?
**A.** 0.94

**Q.** Which logD does the source give for `CCCCCCOC(N)=O` here?
**A.** 1.85

**Q.** For `CCCOC(N)=O`, which logD is on record?
**A.** 0.36

— the SangsterLogP compilation
